This passage reports TGI and GI50 results from PubChem BioAssay (NCI).

Experiment in all cases: growth of human tumour cells (NCI), 48 h
For experiment [1], the system named is RPMI-8226 leukemia.
Experiment [2] has as its system MCF7 breast.
In experiment [3] the test system is SF-295 CNS.
Experiment [4] deals with OVCAR-4 ovarian.
The subject of experiment [5] is HOP-62 NSCLC.
Experiment [6] has as its system LOX IMVI melanoma.
The subject of experiment [7] is UO-31 renal.
For experiment [8], the system named is RXF 393 renal.

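Values below derive from 48-hour exposures of cells grown in 96-well plates, with endpoints linearly interpolated between the two concentrations bracketing the appropriate inhibition level. Here, GI50 denotes the concentration required for 50% inhibition of growth. The concentration for full growth arrest is given as TGI.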

As to `COc1ccc2c(c1)CCc1c-2n(CCN(C)C)c2ccc(OC)cc12`, the TGI is 65.9 µM in experiment [1]; 69.9 µM in experiment [2]; more than 100 µM in experiment [3]; 68.7 µM in experiment [4]; 43.1 µM in experiment [5]; more than 100 µM in experiment [6]. Besides, in experiment [7], the TGI was found to be 47.8 µM.
As to `CSC1SCC2C(=O)N(C)C3(CC3C)C(=O)OCC(NC(=O)c3nc4ccccc4cc3O)C(=O)NC(C)C(=O)N(C)C1C(=O)N(C)C1(CC1C)C(=O)OCC(NC(=O)c1nc3ccccc3cc1O)C(=O)NC(C)C(=O)N2C` (stereo not given), the TGI is less than 0.0001 µM in experiment [1]; 10.3 µM in experiment [2]; 0.000325 µM in experiment [4]; less than 0.0001 µM in experiment [8]; less than 0.0001 µM in experiment [6]; 0.0093 µM in experiment [7].
As to `O=C(NCCNCCO)N/N=C/c1ccc(Cl)cc1`, the TGI in experiment [2], in experiment [3], in experiment [5] and in experiment [7] was more than 100 µM each time.
Turning to `COc1cc(C2C3=C(COC3=O)OC(C)(C)Oc3cc4c(cc32)OCO4)cc(OC)c1OC` (stereo not given), the TGI in experiment [1] is more than 87.3 µM; in experiment [2] it was more than 100 µM; in experiment [3], 0.532 µM; in experiment [4] it was more than 96.2 µM; in experiment [5], more than 100 µM; in experiment [6] it was more than 100 µM. In experiment [7], this compound returned a TGI of 5.86 µM.
Consider `N#CC1=CNc2sccc2S1(=O)=O`, for which the TGI in experiment [1], in experiment [2], in experiment [3], in experiment [4], in experiment [5] and in experiment [6] was more than 100 µM throughout. The compound further showed a TGI in experiment [7] of more than 100 µM.
As for `N#Cc1c2c(c(N3CCOCC3)n3c1nc1ccccc13)CCCC2`, the TGI in experiment [2] worked out at 87.1 µM; in experiment [3], 34.8 µM; in experiment [4], 51.4 µM; in experiment [6] it was 41.1 µM; in experiment [7], 35.4 µM.
Consider `CC1=CC[C@@H]2CC[C@]3(C)[C@H](CC[C@@H]4[C@@]5(C)CCCNC(C)(C)[C@@H]5CC[C@]43C)[C@H]2[C@@H]1C`, for which the GI50 was 1.87 µM in experiment [3], 1.61 µM in experiment [8], 1.66 µM in experiment [6] and 1.47 µM in experiment [7]. Further, the TGI stood at 3.42 µM in experiment [3], 3.1 µM in experiment [8], 3.01 µM in experiment [6] and 2.82 µM in experiment [7].
`COc1ccc(CNc2nc(NCc3ccc(OC)cc3)nc(N3CCOCC3)n2)cc1`: the TGI in experiment [1] is 4.03 µM; in experiment [2], more than 100 µM; in experiment [3] it was 8.98 µM; in experiment [4], more than 100 µM; in experiment [5] it was more than 100 µM; in experiment [8] it was more than 100 µM. For the same compound, the TGI in experiment [7] is more than 100 µM.
For `O=C(NCCO)c1ccc(Cl)cc1`, the TGI in experiment [3], in experiment [4], in experiment [5], in experiment [8], in experiment [6] and in experiment [7] was more than 100 µM each time.
For the compound `COc1c/c(=C2/C=c3ccccc3=N2)[nH]/c1=C/c1[nH]c(C)cc1C`, the GI50 in experiment [1] was 0.0533 µM; in experiment [2] it was 0.0647 µM; in experiment [3], 0.149 µM; in experiment [4] it was 0.106 µM; in experiment [5], 0.0458 µM. Further, the TGI in experiment [1] was 1.95 µM; in experiment [2] it was 2.58 µM; in experiment [3], 0.628 µM; in experiment [4], more than 100 µM; in experiment [5] it was 0.459 µM.
`O=C(N=Nc1ccccc1Br)NNc1ccccc1Br`: the TGI in experiment [1], in experiment [4], in experiment [5], in experiment [6] and in experiment [7] was more than 100 µM each time.
With `COc1ccc(-c2c(C#N)c(-c3ccccc3)n(NS(=O)(=O)c3ccccc3)c(=O)c2C#N)cc1`, the TGI was 68.8 µM in experiment [1]; more than 100 µM in experiment [2]; more than 100 µM in experiment [3]; more than 100 µM in experiment [4]; more than 100 µM in experiment [5]; more than 100 µM in experiment [8]. The compound further yielded a TGI in experiment [6] of more than 100 µM.
On to `O=C(O)c1ccccc1/C=N\NC1=NCCCCN1`, for which the TGI in experiment [1], in experiment [2], in experiment [3], in experiment [4], in experiment [5] and in experiment [6] was more than 100 µM each time. Besides, the TGI in experiment [7] is more than 100 µM.
`COC1/C=C/C(C)C(C(C)C(OC)C(C)CCC(=O)C(C)C(CCC(=O)O)OC)OC(=O)/C=C/C=C(\C)CC(OC)CC2=CC(=O)O[C@@H](C(C)C(OC)CC(OC)/C=C/C(C)C(OC)C1)[C@H]2O` (stereo not given in full): the TGI in experiment [1] is more than 3.94 µM; in experiment [2], more than 5 µM; in experiment [3], more than 5 µM; in experiment [4] it was more than 5 µM; in experiment [5], more than 5 µM; in experiment [8], 1.49 µM. Besides, the TGI in experiment [6] was more than 3.67 µM.
With `CC[N+](CC)=c1ccc2nc3c(cc(N)c4ccccc43)oc-2c1`, the GI50 was 0.0412 µM in experiment [1], 0.111 µM in experiment [3] and 0.173 µM in experiment [8]. The TGI was 0.399 µM in experiment [1], 0.288 µM in experiment [3] and 0.319 µM in experiment [8].
Regarding `O=C1OS2(OCc3cccc4cccc2c34)c2ccccc21` (stereo not given), the TGI in experiment [1], in experiment [2], in experiment [3], in experiment [4], in experiment [5] and in experiment [6] was more than 100 µM throughout. The TGI in experiment [7] is more than 100 µM.
Turning to `OCCN=C1Nc2ccc(Cl)cc2C(=S)N2CSC[C@@H]12`, the TGI in experiment [1], in experiment [2], in experiment [3], in experiment [4], in experiment [5] and in experiment [8] was more than 100 µM throughout. Moreover, the TGI in experiment [7] is more than 100 µM.
With `CCOC(=O)c1sc2c(c1OC(=O)c1ccccc1)c(=O)n(-c1ccccc1)c(=S)n2-c1ccccc1`, the TGI in experiment [1] is more than 100 µM; in experiment [2] it was more than 100 µM; in experiment [3], more than 100 µM; in experiment [4] it was 32 µM; in experiment [5] it was 54.4 µM; in experiment [8], more than 100 µM. In experiment [6], this compound gave a TGI of more than 100 µM.
